These results are taken from US10017527B2, “KLK4 inhibitors” (Universiteit Antwerpen, priority 2014, dated 2018).

The IC50 is the midpoint of a concentration-inhibition curve.

Common to all, as to format: biochemical
One assay addresses AcHE (Homo sapiens, UniProt P22303). Nature of the assay: AcHE inhibition. To be noted: read-out: IC50 AcHE.
In a further assay the target is T1, Matriptase (Homo sapiens, UniProt Q9Y5Y6).
T1 sequence (Q9Y5Y6 1-855): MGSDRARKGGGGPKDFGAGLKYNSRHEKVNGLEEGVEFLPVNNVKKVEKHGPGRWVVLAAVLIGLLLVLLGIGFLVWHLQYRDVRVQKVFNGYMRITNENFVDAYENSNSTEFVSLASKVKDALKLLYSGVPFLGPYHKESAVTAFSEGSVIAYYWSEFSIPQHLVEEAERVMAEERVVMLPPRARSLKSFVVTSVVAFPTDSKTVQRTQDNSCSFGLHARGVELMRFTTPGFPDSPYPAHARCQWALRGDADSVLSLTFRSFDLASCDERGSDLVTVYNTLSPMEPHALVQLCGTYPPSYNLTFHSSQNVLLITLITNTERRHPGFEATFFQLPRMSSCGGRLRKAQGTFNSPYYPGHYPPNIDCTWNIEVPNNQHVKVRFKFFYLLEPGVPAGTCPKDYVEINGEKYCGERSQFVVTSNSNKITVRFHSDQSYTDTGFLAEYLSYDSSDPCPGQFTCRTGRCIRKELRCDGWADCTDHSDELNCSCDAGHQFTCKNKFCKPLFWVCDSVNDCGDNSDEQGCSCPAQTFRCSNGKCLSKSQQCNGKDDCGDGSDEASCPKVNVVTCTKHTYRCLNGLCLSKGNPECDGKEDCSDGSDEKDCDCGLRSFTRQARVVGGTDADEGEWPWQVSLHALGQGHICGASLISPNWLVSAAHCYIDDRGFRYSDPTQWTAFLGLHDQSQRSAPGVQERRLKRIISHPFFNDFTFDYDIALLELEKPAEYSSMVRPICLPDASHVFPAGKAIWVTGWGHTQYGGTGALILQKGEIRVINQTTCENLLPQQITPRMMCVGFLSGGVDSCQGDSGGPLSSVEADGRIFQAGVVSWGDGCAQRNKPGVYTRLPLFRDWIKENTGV
Description: Matriptase inhibition. The note with it: Matriptase; read-out: IC50 MAT.

The next assay has as its target T2, FXa (Homo sapiens, UniProt P00742).
T2 construct: purchased Nodia
Nature of the assay: FXa inhibition, chromogenic substrate Biophen CS-11(32). To be noted: Tris buffer pH 8.3; read-out: IC50 FXa. The source says: (§1) The IC50 values For KLK1, KLK2 and KLK8 were obtained in a similar way. For plasmin, tPA, thrombin, Fxa, HNE, Plasma kallikrein Chromogenic substrates were used (absorption: 405 nm). (KLK2, KLK4, KLK8 were supplied by Viktor Magdolen TUMunich (TUM)).

Assay [1] concerns the target T3, KLK4 (Homo sapiens, UniProt Q9Y5K2).
T3 construct: purchased Viktor Magdolen (TUM), supplied by an academic laboratory
Description: KLK4 enzymatic inhibition, fluorogenic substrate Boc-Val-Pro-Arg-AMC. The note with it: 15 min pre-incubation at 37° C., Tris buffer pH 8.3; read-out: IC50 KLK4.

The next assay addresses T4, uPA (recombinant) (Homo sapiens, UniProt P00749).
T4 construct: purchased Nodia
Description: uPA inhibition, chromogenic substrate Biophen CS-61(44). To be noted: Tris buffer pH 8.8; read-out: IC50 uPA.

The target in the next assay is T5, Thrombine (human plasma) (Homo sapiens, UniProt P00734).
T5 construct: purchased Sigma-Aldrich; host or cells: human plasma
Description: Thrombin inhibition, chromogenic substrate Biophen CS-21(66). To be noted: Thrombin; Tris buffer pH 8.3; read-out: IC50 THR.

The target of another assay is T6, KLK1 (human) (Homo sapiens, UniProt P06870).
T6 construct: purchased Prospec
T6 sequence (P06870 25-262): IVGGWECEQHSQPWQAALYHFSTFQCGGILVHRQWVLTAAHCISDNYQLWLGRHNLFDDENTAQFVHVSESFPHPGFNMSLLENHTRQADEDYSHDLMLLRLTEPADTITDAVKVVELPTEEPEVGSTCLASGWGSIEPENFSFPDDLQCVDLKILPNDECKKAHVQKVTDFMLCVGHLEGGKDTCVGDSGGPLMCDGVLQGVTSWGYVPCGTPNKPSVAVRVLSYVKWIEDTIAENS
Description: KLK1 inhibition, fluorogenic substrate H-Pro-Phe-Arg-AMC. To be noted: Tris buffer pH 7.8; read-out: IC50 KLK1. The procedure, abridged: (§2)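 Inhibitor potency is reported as IC50. KLK1 and KLK2 shared one protocol, while the tPA and human neutrophil elastase assays used chromogenic substrates measured at 405 nm.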

A further assay deals with T7, PlasmaKLK (human plasma) (Homo sapiens, UniProt P03952).
T7 construct: purchased Sigma-Aldrich; host or cells: human plasma
T7 sequence (P03952 391-638 limits assumed): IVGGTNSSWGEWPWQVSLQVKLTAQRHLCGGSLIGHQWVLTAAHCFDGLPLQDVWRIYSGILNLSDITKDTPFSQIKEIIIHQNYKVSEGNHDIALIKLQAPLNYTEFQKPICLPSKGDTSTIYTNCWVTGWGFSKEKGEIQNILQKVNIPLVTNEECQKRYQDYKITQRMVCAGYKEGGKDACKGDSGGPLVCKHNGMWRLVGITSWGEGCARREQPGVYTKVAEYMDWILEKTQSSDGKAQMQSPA
T7 sequence (P03952 20-390 partner limits assumed): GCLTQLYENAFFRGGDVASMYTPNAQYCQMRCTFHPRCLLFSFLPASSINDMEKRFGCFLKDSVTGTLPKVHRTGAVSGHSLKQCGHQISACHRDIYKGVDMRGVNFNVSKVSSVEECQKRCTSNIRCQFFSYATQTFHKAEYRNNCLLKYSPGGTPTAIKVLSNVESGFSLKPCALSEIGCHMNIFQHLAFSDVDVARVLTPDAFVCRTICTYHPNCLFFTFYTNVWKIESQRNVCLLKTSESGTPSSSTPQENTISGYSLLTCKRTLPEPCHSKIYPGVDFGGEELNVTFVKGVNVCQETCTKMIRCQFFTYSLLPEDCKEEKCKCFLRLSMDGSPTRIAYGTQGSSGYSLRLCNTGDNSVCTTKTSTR
Nature of the assay: Plasma kallikrein inhibition, chromogenic substrate Biophen CS-31(02). The note with it: Plasma KLK; Tris buffer pH 7.8; read-out: IC50 pKLK.
From the text: as §1

The next assay deals with T8, KLK2 (human) (Homo sapiens, UniProt P20151).
T8 construct: purchased Viktor Magdolen, TUMunich (TUM), supplied by an academic laboratory
T8 sequence (P20151 25-261): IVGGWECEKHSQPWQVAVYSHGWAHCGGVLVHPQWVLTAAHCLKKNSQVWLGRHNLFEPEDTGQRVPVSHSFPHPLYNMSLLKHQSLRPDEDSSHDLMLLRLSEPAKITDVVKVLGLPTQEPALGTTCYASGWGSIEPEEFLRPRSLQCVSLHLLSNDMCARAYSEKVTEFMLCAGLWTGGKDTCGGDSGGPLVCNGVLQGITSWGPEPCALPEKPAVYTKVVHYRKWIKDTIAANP
Description: KLK2 inhibition, fluorogenic substrate H-Pro-Phe-Arg-AMC. The note with it: Tris buffer pH 8.3; read-out: IC50 KLK2. An outline of the steps:
as §2

In assay [2] the target is T3, KLK4. Description: KLK4 inactivation kinetics from progress curves (kobs vs inhibitor concentration). To be noted: for kapp KLK4: apparent second-order rate constant, substrate 250 μM; for Irreversible (KLK4): irreversible binding to KLK4, Yes/No. An outline of the steps:
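Enzyme was added at time zero to inhibitor plus substrate (250 μM final), and aminomethylcoumarine absorbance was followed under pseudo-first-order conditions ([I]0>>[E]0) with under 10% substrate conversion. Progress curves were fitted to the integrated rate equation to give kobs. kapp is the slope of kobs versus [I]0 and depends on substrate concentration.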

T3 sequence (Q9Y5K2 31-254): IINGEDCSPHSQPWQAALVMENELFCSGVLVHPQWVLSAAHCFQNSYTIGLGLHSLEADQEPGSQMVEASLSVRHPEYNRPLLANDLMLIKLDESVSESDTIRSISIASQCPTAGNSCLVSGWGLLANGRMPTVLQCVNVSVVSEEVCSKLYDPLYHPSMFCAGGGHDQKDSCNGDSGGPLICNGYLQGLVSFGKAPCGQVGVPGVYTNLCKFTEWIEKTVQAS
Chain of AcHE (P22303 32-614): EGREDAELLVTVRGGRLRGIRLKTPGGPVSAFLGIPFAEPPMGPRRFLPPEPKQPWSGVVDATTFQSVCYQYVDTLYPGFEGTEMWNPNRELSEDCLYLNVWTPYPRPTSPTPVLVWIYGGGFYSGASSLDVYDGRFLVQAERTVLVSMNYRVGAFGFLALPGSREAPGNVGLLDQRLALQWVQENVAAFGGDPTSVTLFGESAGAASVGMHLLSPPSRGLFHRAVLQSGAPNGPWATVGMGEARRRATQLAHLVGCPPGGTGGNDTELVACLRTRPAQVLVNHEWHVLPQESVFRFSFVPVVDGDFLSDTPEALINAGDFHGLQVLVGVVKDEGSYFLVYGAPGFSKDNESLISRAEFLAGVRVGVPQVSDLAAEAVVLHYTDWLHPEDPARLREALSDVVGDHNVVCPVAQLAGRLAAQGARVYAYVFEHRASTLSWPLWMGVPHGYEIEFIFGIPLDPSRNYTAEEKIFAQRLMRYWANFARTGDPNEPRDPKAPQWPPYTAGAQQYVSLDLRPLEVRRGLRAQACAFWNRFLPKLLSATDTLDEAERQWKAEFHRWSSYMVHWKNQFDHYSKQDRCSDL
T2 sequence (P00742 235-488 limits assumed): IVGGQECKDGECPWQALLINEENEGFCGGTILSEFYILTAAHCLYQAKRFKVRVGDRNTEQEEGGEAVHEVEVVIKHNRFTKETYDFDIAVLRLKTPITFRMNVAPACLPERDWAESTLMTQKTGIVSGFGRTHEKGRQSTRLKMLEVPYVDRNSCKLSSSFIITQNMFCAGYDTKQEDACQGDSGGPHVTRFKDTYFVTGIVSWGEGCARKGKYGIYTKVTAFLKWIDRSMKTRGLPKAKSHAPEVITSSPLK
T2 sequence (P00742 41-179 partner limits assumed): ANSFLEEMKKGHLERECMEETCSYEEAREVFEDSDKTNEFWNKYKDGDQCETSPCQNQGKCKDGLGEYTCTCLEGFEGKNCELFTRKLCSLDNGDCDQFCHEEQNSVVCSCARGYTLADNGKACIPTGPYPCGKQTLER

`N=C(N)Nc1ccc(C(NC(=O)OCCOc2ccccc2)P(=O)(Oc2ccccc2)Oc2ccccc2)cc1.O=C(O)C(F)(F)F` (stereo not shown) [Compound 30, 2-phenoxyethyl((diphenoxyphosphoryl)(4-guanidinophenyl)methyl)carbamate 2,2,2-trifluoroacetate]: the IC50 was 10 to 250 µM on AcHE; 2.5 to 10 µM on Matriptase; 10 to 250 µM at FXa; less than 0.1 µM at KLK4 [1]; 2.5 to 10 µM at uPA (recombinant); more than 250 µM on Thrombine (human plasma). Moreover, the IC50 on KLK1 (human) is 2.5 to 10 µM; at PlasmaKLK (human plasma) it was more than 250 µM; on KLK2 (human), 0.1 to 1 µM. Besides, on KLK4 [2], the “kapp KLK4” value is 15000 M⁻¹ s⁻¹. Moreover, the “Irreversible (KLK4)” value at KLK4 [2] is “Yes/”.
For `COCCOCCOC(=O)NC(c1ccc(NC(=N)N)cc1)P(=O)(Oc1ccccc1)Oc1ccccc1.O=C(O)C(F)(F)F` (stereo not shown) [Compound 28, 2-(2-methoxyethoxy)ethyl((diphenoxyphosphoryl)(4-guanidinophenyl)methyl) carbamate 2,2,2-trifluoroacetate], the IC50 was 10 to 250 µM on AcHE; 2.5 to 10 µM at Matriptase; more than 250 µM at FXa; less than 0.1 µM at KLK4 [1]; 10 to 250 µM on uPA (recombinant); more than 250 µM on Thrombine (human plasma). The IC50 at KLK1 (human) was in the range of 10 to 250 µM; on PlasmaKLK (human plasma) it was 10 to 250 µM; at KLK2 (human), 0.1 to 1 µM. For the same molecule, on KLK4 [2], the “kapp KLK4” value turned out to be 34000 M⁻¹ s⁻¹. In addition, on KLK4 [2], the “Irreversible (KLK4)” value is given as “Yes/”.
